Measured values as given in patent publication US20110200618A1, “ERBB4 INHIBITORS AND USES THEREOF IN TREATMENT OF NEUROPSYCHIATRIC DISORDERS” (priority 2008, published 2011).

Assays:
Assay type in all cases: cell-based
[1] = test system: NRG1 induced ERK activation; test: NRG1 induced ERK activation in human olfactory epithelial (hOE) cultures, western blot; conditions: healthy person, inhibitors 20 min, then 100 ng/ml NRG1 10 min, 10 μM U0126, 10 nM wortmannin, 100 nM K-252, 2.5 μM AG1478, 1 μM AG879
Protocol: Protein extracts were analyzed for the expression of p-ERK and glyeraldehyde 3-dehydrogenase (GAPDH). U, 10 μM of U0126: W, 10 nM of wortmannin: K, 100 nM K-252, 2.5 μM of AG1478 and 1 μM of AG879;
Protein extracts were analyzed for the expression of p-ERK and glyceraldehyde 3-dehydrogenase (GAPDH). (A) A representative western blotting (B) p-ERK intensities were normalized with respect to GAPDH, which were then used to calculate percent inhibition.
As an internal control experiment, the cells were also incubated with inhibitors for ERK, AKT or trkb activation, U0126, wortmannin or K-252 respectively.

[2] = test system: NRG1 induced ERK activation; test: NRG1 stimulation of post-mortem human prefrontal cortex tissues, ERK activation; conditions: post-mortem PFC of healthy control; 2.5 μM AG1478 pre-incubated 15 min, 100 ng/ml NRG1
Protocol: NRG1 stimulation of human post-mortem PFC. 100 mg of post-mortem brain tissues of a healthy control subject were incubated with or without 100 ng/ml of NRG1 in the presence or absence of 2.5 μM AG1478. Protein extracts were analyzed for p-ERK and ERK;
Protein extracts were analyzed for the expression of ERK, AKT and GSK and their phosphorylated counterparts;
erbB stimulation/inhibition experiment wastested in post-mortem brain tissues. FIG. 2 represents an experiment, in which the PFC of a healthy control subject was stimulated with NRG1 in the presence of AG1478. In this experiment, the tissues were incubated with the inhibitor for 15 min before added with 100 ng/ml of NRG1.
GSK1495829A was tested in post-mortem mouse and human brain tissues. FIG. 4 represents an experiment, in which the PFC tissues of a healthy control subject were pre-incubated with varied concentrations of the inhibitor for 15 min before the ligand stimulation with 100 ng/ml of NRG1. […] One possible explanation could be that the brain tissues are less permeable to the inhibitors than OE culture cells.

[3] = test system: activation of ERK; test: NRG1 stimulation of post-mortem mouse brain tissues after 60 min pre-incubation, ERK activation; conditions: post-mortem mouse brain tissue slices, GSK compound at 10 μM, 100 ng/ml NRG1, vehicle control also failed to respond to NRG1
Protocol: Protein extracts were analyzed for the expression of p-ERK;
To enhance the permeability of the inhibitors, tissue slices were pre-incubated with the inhibitors for 60 min before added with NRG1.

[4] = test system: activation of AKT; test: NRG1 stimulation of post-mortem mouse brain tissues after 60 min pre-incubation, AKT activation; conditions: post-mortem mouse brain tissue slices, GSK compound at 10 μM, 100 ng/ml NRG1

Compound | NRG1 induced p-ERK with respect to GAPDH [1] | NRG1 induced ERK activation (ratio p-ERK to ERK) [2] | activation of ERK [3] | activation of AKT [4]
CC(C)(C)c1cc(C=C(C#N)C(N)=S)cc(C(C)(C)C)c1O [AG 879, α-Cyano-(3,5-di-t-butyl-4-hydroxy)thiocinnamide] | attenuated | – | – | –
COc1cc2ncnc(Nc3cccc(Cl)c3)c2cc1OC [AG 1478, 4-(3-Chloroanilino)-6,7-dimethoxyquinazoline] | attenuated | significantly reduced | did not reduce | did not reduce
N#CC(=C(/N)Sc1ccccc1N)/C(C#N)=C(\N)Sc1ccccc1N [U0126] | significantly reduced | – | – | –
